Results as given in PubChem BioAssay AID1963826 (Molecular Pharmacology Branch, DTP, NCI, 2024).

Test system: 926638-142-R-J1-PDC complex spheroid viability
Assay: Anticancer human tumor 926638-142-R-J1-PDC patient-derived endometrial carcinoma cell line growth inhibition [POLQ]
Details: for IC50: curve of first compound; for viability, T/C: stronger effect = lower value
Method: Multicellular complex tumor spheroid response to Polymerase (POL) inhibitors (novobiocin, ART-558, RP6685) in combination with a variety of drugs and investigational agents in selected tumor cell lines
The POL inhibitors (novobiocin, ART-558, and RP6685) were evaluated both individually and in combination with standard of care and investigational anticancer small molecules within a complex spheroid model of solid tumors. . Complex spheroids include a stromal component modeled by human endothelial cells (HUVEC) and fibroblasts modeled by human mesenchymal stem cells (MSCs). The concentration ranges selected for each drug and investigational agent were based upon clinically achievable concentrations if the clinical Cmax of the agent was known.
Compounds. The drugs and investigational agents: novobiocin (NSC847541), ART-558 (NSC835418), RP-6685 (NSC848927), peposertib (NSC802822), ceralasertib (NSC780249), elimusertib (NSC800525), camonsertib (NSC841442), AZD-1390 (NSC803789), olaparib (NSC753686), talazoparib (NSC767125), rucaparib (NSC756644), sotorasib (NSC818433), MRTX-1133 (NSC836407), SN-38 (NSC673596), topotecan (NSC609699), epotoside (NSC141540), doxorubicin (NSC123127), gemcitabine (NSC613327), 5-fluorouracil (NSC19893), paclitaxel (NSC125973), vemurafenib (NSC761431), MSA-2 (NSC828583), SN-011 (NSC837082), adavosertib (NSC754352), prexasertib (NSC758257), carboplatin (NSC241240) and oxaliplatin (NSC266046), were obtained from the National Cancer Institute (NCI) Developmental Therapeutics Program Chemical Repository (21). The FDA-approved anticancer drug set is available from the Developmental Therapeutics Program at https://dtp.cancer.gov/organization/dscb/obtaining/. […] The stock solutions were prepared in dimethyl sulfoxide (DMSO, Sigma-Aldrich, St. Louis, MO, cat. D2650), except for the platinum compounds which were prepared in saline (Quality Biological, Gaithersburg, MD, cat. 114-055-101), at 800-fold the tested concentration and stored at -70 degrees C prior to their use. All drugs and investigational agents were tested over a range starting from a high concentration at or near the clinical Cmax and decreasing in half-log increments. If the clinical Cmax for an agent had not been determined, the highest concentration tested was 10 microM, except for SN-38, which was tested at a high concentration of 1 microM.
Cell Culture. All cells were maintained in an incubator at 37 degrees C and 5% CO2 with 95% humidity. The PDC lines were cultured according to standard operating procedures established by the NCI PDMR (https://pdmr.cancer.gov). Table 3 of the manuscript, lists the cell lines along with the number of the three cell types plated to form the mct-spheroids and media for tumor cell growth. After thawing, all PDC lines, except 997537-175-T-J1-PDC and 415267-285-R-J2-PDC, were cultured in Matrigel-coated flasks prepared with a working solution of 1X Ham's F-12 nutrient mix, without supplementation (Thermo Fisher Scientific, cat. 11765054), 100 U/mL penicillin-streptomycin (Thermo Fisher Scientific, cat. 15140122), and 2.5% Matrigel (Corning Inc., Corning, NY, cat. 354248) for the first three passages. The two PDC lines 997537-175-T-J1-PDC and 415267-285-R-J2-PDC were cultured on uncoated flasks. The 857933-349-R-J2-PDC line was cultured in 6C/Colon 1B media containing advanced DMEM/F-12 (Thermo Fisher Scientific, cat. 12634028), 10 mM HEPES (Thermo Fisher Scientific, cat. 15630080), 1X GlutaMAX supplement (Thermo Fisher Scientific, cat. 35050061), 0.1 mg/mL primocin (InvivoGen, San Diego, CA, cat. ant-pm-2), 10% defined fetal bovine serum, heat inactivated (HyClone Laboratories Inc., Logan, UT, cat. SH30070.03HI), 50% L-WRN conditioned media (ATCC, cat. CRL-3276), 1.25 mM N-Acetyl-L-cysteine (Sigma-Aldrich, cat. A9165), 10 mM nicotinamide (Sigma-Aldrich, cat. N0636), 1X B-27 supplement (Thermo Fisher Scientific, cat. 17504044), 1X N-2 supplement (Thermo Fisher Scientific, cat. […]

[1] = second compound 0.0316 µM, first compound 0.0316 µM
[2] = second compound 0.0316 µM, first compound 0.1 µM
[3] = second compound 0.0316 µM, first compound 0.316 µM
[4] = second compound 0.0316 µM, first compound 1 µM
[5] = second compound 0.0316 µM, first compound 3.16 µM
[6] = second compound 0.0316 µM, first compound 10 µM
[7] = second compound 0.1 µM, first compound 0.0316 µM
[8] = second compound 0.1 µM, first compound 0.1 µM
[9] = second compound 0.1 µM, first compound 0.316 µM
[10] = second compound 0.1 µM, first compound 1 µM
[11] = second compound 0.1 µM, first compound 3.16 µM
[12] = second compound 0.1 µM, first compound 10 µM
[13] = second compound 0.316 µM, first compound 0.0316 µM
[14] = second compound 0.316 µM, first compound 0.1 µM
[15] = second compound 0.316 µM, first compound 0.316 µM
[16] = second compound 0.316 µM, first compound 1 µM
[17] = second compound 0.316 µM, first compound 3.16 µM
[18] = second compound 0.316 µM, first compound 10 µM
[19] = second compound 1 µM, first compound 0.0316 µM
[20] = second compound 1 µM, first compound 0.1 µM
[21] = second compound 1 µM, first compound 0.316 µM
[22] = second compound 1 µM, first compound 1 µM
[23] = second compound 1 µM, first compound 3.16 µM
[24] = second compound 1 µM, first compound 10 µM
[25] = second compound 3.16 µM, first compound 0.0316 µM
[26] = second compound 3.16 µM, first compound 0.1 µM
[27] = second compound 3.16 µM, first compound 0.316 µM
[28] = second compound 3.16 µM, first compound 1 µM
[29] = second compound 3.16 µM, first compound 3.16 µM
[30] = second compound 3.16 µM, first compound 10 µM
[31] = second compound 10 µM, first compound 0.0316 µM
[32] = second compound 10 µM, first compound 0.1 µM
[33] = second compound 10 µM, first compound 0.316 µM
[34] = second compound 10 µM, first compound 1 µM
[35] = second compound 10 µM, first compound 3.16 µM
[36] = second compound 10 µM, first compound 10 µM
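Also: spheroids exposed to drugs for one week before readout.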
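For viability, T/C in this document: percent viability relative to DMSO vehicle control wells set as 100%.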

## COc1cccc2c1C(=O)c1c(O)c3c(c(O)c1C2=O)CC(O)(C(=O)CO)CC3OC1CC(N)C(O)C(C)O1 (stereo unspecified) + COC1C(OC(N)=O)C(O)C(Oc2ccc3c(O)c(NC(=O)c4ccc(O)c(CC=C(C)C)c4)c(=O)oc3c2C)OC1(C)C
Second compound 0.0316 µM
  IC50: 94.1 nM
Second compound 0.1 µM
  IC50: 167 nM
Second compound 0.316 µM
  IC50: 129 nM
Second compound 1 µM
  IC50: 128 nM
Second compound 3.16 µM
  IC50: 133 nM
Second compound 10 µM
  IC50: 154 nM
[1]
  viability, T/C: 73.2%
[2]
  viability, T/C: 48.3%
[3]
  viability, T/C: 17.7%
[4]
  viability, T/C: 1.39%
[5]
  viability, T/C: 0.18%
[6]
  viability, T/C: 0.28%
[7]
  viability, T/C: 81%
[8]
  viability, T/C: 74.1%
[9]
  viability, T/C: 19.9%
[10]
  viability, T/C: 3.56%
[11]
  viability, T/C: 0.18%
[12]
  viability, T/C: 0.25%
[13]
  viability, T/C: 81.6%
[14]
  viability, T/C: 59.9%
[15]
  viability, T/C: 15.9%
[16]
  viability, T/C: 1.61%
[17]
  viability, T/C: 0.22%
[18]
  viability, T/C: 0.17%
[19]
  viability, T/C: 72.9%
[20]
  viability, T/C: 59.8%
[21]
  viability, T/C: 14%
[22]
  viability, T/C: 2.68%
[23]
  viability, T/C: 0.17%
[24]
  viability, T/C: 0.21%
[25]
  viability, T/C: 74.3%
[26]
  viability, T/C: 61.1%
[27]
  viability, T/C: 16.2%
[28]
  viability, T/C: 3.97%
[29]
  viability, T/C: 0.21%
[30]
  viability, T/C: 0.21%
[31]
  viability, T/C: 90.7%
[32]
  viability, T/C: 69%
[33]
  viability, T/C: 18%
[34]
  viability, T/C: 2.23%
[35]
  viability, T/C: 0.25%
[36]
  viability, T/C: 0.26%

## Nc1ccn(C2OC(CO)C(O)C2(F)F)c(=O)n1 (stereo unspecified) + COC1C(OC(N)=O)C(O)C(Oc2ccc3c(O)c(NC(=O)c4ccc(O)c(CC=C(C)C)c4)c(=O)oc3c2C)OC1(C)C
Second compound 0.0316 µM
  IC50: 1010 nM
Second compound 0.1 µM
  IC50: 1600 nM
Second compound 0.316 µM
  IC50: 470 nM
Second compound 1 µM
  IC50: 924 nM
Second compound 3.16 µM
  IC50: 874 nM
Second compound 10 µM
  IC50: 463 nM
[1]
  viability, T/C: 81.7%
[2]
  viability, T/C: 70.2%
[3]
  viability, T/C: 49.4%
[4]
  viability, T/C: 59.7%
[5]
  viability, T/C: 41.4%
[6]
  viability, T/C: 26.2%
[7]
  viability, T/C: 86.2%
[8]
  viability, T/C: 67.3%
[9]
  viability, T/C: 61.6%
[10]
  viability, T/C: 55%
[11]
  viability, T/C: 50.3%
[12]
  viability, T/C: 26.3%
[13]
  viability, T/C: 75.8%
[14]
  viability, T/C: 61.4%
[15]
  viability, T/C: 47%
[16]
  viability, T/C: 52.4%
[17]
  viability, T/C: 36.8%
[18]
  viability, T/C: 33.1%
[19]
  viability, T/C: 81.3%
[20]
  viability, T/C: 70.7%
[21]
  viability, T/C: 56.6%
[22]
  viability, T/C: 45.6%
[23]
  viability, T/C: 48.7%
[24]
  viability, T/C: 28.2%
[25]
  viability, T/C: 79%
[26]
  viability, T/C: 62.8%
[27]
  viability, T/C: 55.8%
[28]
  viability, T/C: 51.4%
[29]
  viability, T/C: 45.7%
[30]
  viability, T/C: 25%
[31]
  viability, T/C: 83.3%
[32]
  viability, T/C: 73.8%
[33]
  viability, T/C: 41.7%
[34]
  viability, T/C: 46.9%
[35]
  viability, T/C: 47.1%
[36]
  viability, T/C: 28.2%

## O=C(c1cc(Cc2n[nH]c(=O)c3ccccc23)ccc1F)N1CCN(C(=O)C2CC2)CC1 + COC1C(OC(N)=O)C(O)C(Oc2ccc3c(O)c(NC(=O)c4ccc(O)c(CC=C(C)C)c4)c(=O)oc3c2C)OC1(C)C
Second compound 0.0316 µM
  IC50: > 10000 nM
Second compound 0.1 µM
  IC50: > 10000 nM
Second compound 0.316 µM
  IC50: > 10000 nM
Second compound 1 µM
  IC50: > 10000 nM
Second compound 3.16 µM
  IC50: > 10000 nM
Second compound 10 µM
  IC50: > 10000 nM
[1]
  viability, T/C: 86%
[2]
  viability, T/C: 115%
[3]
  viability, T/C: 95.5%
[4]
  viability, T/C: 115%
[5]
  viability, T/C: 84.3%
[6]
  viability, T/C: 89.7%
[7]
  viability, T/C: 92.3%
[8]
  viability, T/C: 95.5%
[9]
  viability, T/C: 108%
[10]
  viability, T/C: 95.6%
[11]
  viability, T/C: 89.3%
[12]
  viability, T/C: 76.8%
[13]
  viability, T/C: 92.3%
[14]
  viability, T/C: 95.5%
[15]
  viability, T/C: 101%
[16]
  viability, T/C: 98.1%
[17]
  viability, T/C: 80.3%
[18]
  viability, T/C: 80.1%
[19]
  viability, T/C: 117%
[20]
  viability, T/C: 91.1%
[21]
  viability, T/C: 110%
[22]
  viability, T/C: 97.5%
[23]
  viability, T/C: 80.7%
[24]
  viability, T/C: 89.3%
[25]
  viability, T/C: 98.2%
[26]
  viability, T/C: 102%
[27]
  viability, T/C: 89.4%
[28]
  viability, T/C: 111%
[29]
  viability, T/C: 99.6%
[30]
  viability, T/C: 85.7%
[31]
  viability, T/C: 95.5%
[32]
  viability, T/C: 89.3%
[33]
  viability, T/C: 92.2%
[34]
  viability, T/C: 116%
[35]
  viability, T/C: 83.1%
[36]
  viability, T/C: 96%
